Measured values reported in patent US8637461B2, “Method of diagnosing and treating oxidative stress-impaired wound healing” (Kuwait University, priority 2011, dated 2014).

Tests used:
[1] = Body weight and fasting plasma parameters in diabetic and hypercortisolemic rats; assay type: in vivo, rat
Protocol: (§1) All animal procedures were performed in accordance with the NIH Guidance for the Care and Use of Laboratory Animals. The current study used, respectively the GK and Dexamethasone-treated rats as models for diabetes and hypercortisolemia. Dexamethasone was administered subcutaneously at a dose of 2.5 μg/kg body weight in the morning (8:00 AM) and in the evening (8:00 PM) for a duration of four weeks before wounding and this form of therapy continued during the course of healing. […] Weight and age-matched female Wistar rats (Kuwait University breeding colony) served as the corresponding controls. All of the animals were maintained under standard conditions with 12 hours on/off light cycle, commercial diet, and water ad libitum. GK rats destined for wounding were initially matched with regard to body weight (e.g., 230 to 250 g), and plasma levels of glucose, free fatty acids and insulin. These indices are commonly used to reflect the severity of the diabetic state.
(§2) Animals used for IGF-1 sensitivity (n=6/group) and wound healing (n=8) studies were partitioned into five study groups including control, diabetic, hypercortisolemic, diabetic+EUK and hypercortisolemic+EUK. The EUK-134 was administered for duration of four weeks before wound induction and it continued during the course of healing.

Akt [2] = assay: Akt phosphorylation, western blotting in dermal fibroblasts; assay type: cell-based, rat; settings: normal fibroblasts exposed to IGF-1; western blot
Protocol: (§3) Primary dermal fibroblasts were obtained from dorsal skin of female Goto Kakizaki (GK, age 12-15 months) rats, a model for non-obese type 2 diabetes, and their Wistar control counterparts. After sterilization in povidine solution, rat skin was washed in sterile water and rinsed in 70% ethanol in PBS. Epidermis and dermis were separated following overnight incubation in 0.25% trypsine/EDTA at 4 C. Dermis was cut into small pieces and incubated in Dulbecco's modified Eagle medium (DMEM; Invitrogen) containing collagenase (250 U/ml; Sigma) for thirty min at 37 C in 5% CO2 with constant agitation. The sections were triturated vigorously to release fibroblasts, which were collected by centrifugation. […]
(§4) A hypercortisolemic state was mimicked by exposing control fibroblasts to dexamethasone (Dexa, Sigma) administered at 20 ng/ml every other day for a duration of 8 days. […] The concentration of IGF-1 (50 ng/ml, Peprotech) was determined by prior dose response experiment.
(§5) Levels/activities of key intracellular molecules in the IGF-1 signaling cascade including IRS-1, IRS-1 Tyr-p-612, PI3K-p85α, IRS-1 Ser-p (307), PI3K, Akt, p-Akt, INK and p-JNK were assessed using western blotting/immunoprecipitation and commercially available ELISA-based assays. […]

dermal fibroblasts [3] = assay: BrdU cell proliferation assay in fibroblasts; assay type: cell-based, rat
Protocol: (§6) Primary dermal fibroblasts were obtained from dorsal skin of female Goto Kakizaki (GK, age 12-15 months) rats, a model for non-obese type 2 diabetes, and their Wistar control counterparts. After sterilization in povidine solution, rat skin was washed in sterile water and rinsed in 70% ethanol in PBS. Epidermis and dermis were separated following overnight incubation in 0.25% trypsine/EDTA at 4 C. Dermis was cut into small pieces and incubated in Dulbecco's modified Eagle medium (DMEM; Invitrogen) containing collagenase (250 U/ml; Sigma) for thirty min at 37 C in 5% CO2 with constant agitation. The sections were triturated vigorously to release fibroblasts, which were collected by centrifugation. The cell pellet was washed two times with PBS, re-suspended in complete medium (DMEM supplemented with 10% fetal calf serum, penicillin (100 U/ml), streptomycin (100 μg/ml)), 2 mM L-glutamine and 10 mM HEPES) and then cultured under a standard condition.
as §4, with “days. Similarly, the state of low-grade inflammation in fibroblasts was recapitulated experimentally by exposing these cells to TNF-α (4 ng/ml every day for 4 days).” for “days.”
(§7) The proliferation and collagen synthesis of cultured fibroblasts were determined using, respectively the 5-bromo-2-deoxyuridine (BrdU) incorporation into DNA and a radiolabelled proline uptake assay.
Cells were seeded into 96-microtiter plates at a concentration of 1.5×10^4 and allowed to adhere overnight in DMEM supplemented with 10% FCS. After arrest by incubation in DMEM supplemented with 0.5% FCS for 24 hrs, cells were exposed to IGF-I (50 ng/ml) in DMEM containing […] 5-bromo-2-deoxyuridine (BrdUrd). Incorporation of BrdUrd into DNA was estimated using 5-bromo-2-deoxyuridine labeling and detection kit (Roche Applied Science) according to the manufacturer's instructions.

Akt [4] = assay: Akt phosphorylation, FACE cell-based ELISA in fixed fibroblasts; design: species or system rat; settings: normal fibroblasts exposed to IGF-1
Protocol: as §3, §4
Activation of Akt and JNK was analyzed in fixed fibroblasts using FACE-Akt and FACE-JNK (both from Active Motife). […] Labeling with antibodies was conducted according to the manufacturer's protocol and the resulting phosphoantibody signal was calculated after correction for number of cells and total Akt or JNK levels in each sample. […]

[5] = diabetic patients, cited from earlier work
dermal fibroblasts [6] = assay: Radiolabelled proline uptake assay (collagen synthesis) in fibroblasts; assay type: cell-based, rat; settings: control fibroblasts, IGF-1
Protocol: as §3, §4, §7
A radiolabel proline uptake assay was used in the quantification of the rate of collagen synthesis in cultured fibroblasts derived from various experimental groups. […]

[7] = Rapid insulin sensitivity test (RIST) with IGF-1 instead of insulin; assay type: in vivo, rat
Protocol: as §1, §2
IGF-1 sensitivity in control, diabetic and hypercortisolemic animals was determined using the rapid insulin sensitivity test (RIST) with IGF-1 (200 μg/kg BW) infused instead of insulin. The RIST index is the amount of glucose per kg body weight required to maintain euglycemia following a bolus of insulin (50 mU/kg BW).

PI3K-p85α / IRS-1 = assay: Co-precipitation of PI3K p85α with IRS-1 in dermal fibroblasts; assay type: cell-based, rat; settings: fibroblasts exposed to IGF-1
Protocol: as §3, §4, §5

IRS-1 = IRS-1 Tyr612 phosphorylation, immunoprecipitation/western blotting in dermal fibroblasts; assay type: cell-based, rat
Protocol: as §6
as §4, with “days. Similarly, the state of low-grade inflammation in fibroblasts was recapitulated experimentally by exposing these cells to TNF-α (4 ng/ml every day for 4 days).” for “days.”
Levels/activities of key intracellular molecules in the IGF-1 signaling cascade including IRS-1, IRS-1 Tyr-p-612, PI3K-p85α, IRS-1 Ser-p (307), PI3K, Akt, p-Akt, INK and p-JNK were assessed using western blotting/immunoprecipitation and commercially available ELISA-based assays.
Ice-cold radioimmunoprecipitation assay (RIPA) buffer was used for the extraction of proteins from fibroblasts. Immunoprecipitation was achieved by incubating cell homogenates with anti-IRS-1 antibody overnight at 4° C. followed by the addition of protein A/G-Agarose for additional two hours. Immunoprecipitates were separated using spin-collection filters (Cytosignal), washed once with RIPA buffer/3× with PBS and then elutated by the addition of Laemmli buffer. […] Antigen-antibody complexes were visualized by an enhanced chemiluminescence system on BioMax Light Film (Kodack) and then the densitometry was analyzed using Quantity One 1-D image software (BioRad, GS 800). All densitometry data were corrected for equal loading using the house keeping gene β-actin and they were expressed as fold change vs. control.

PI3K = PI3K ELISA kinase assay on fibroblast lysates; assay type: cell-based, rat; settings: fibroblasts exposed to IGF-1
Protocol: as §6, §4
PI3K activity was measured using PI3K ELISA (Echelon Biosciences Inc). […]

excisional wounds = assay: Full-thickness excisional wound healing, 7 days; assay type: in vivo, rat; settings: diabetic/hypercortisolemic rat wounds, antioxidant administered
Protocol: as §1, §2
Animals derived from various experimental groups were anesthetized by ip, injection of 90 mg ketamine+10 mg xylazine/kg body weight, and their back skin was shaved, depilated with Nair and cleaned with 70% alcohol. Six bilateral full-thickness excisional wounds (8 mm in diameter) at equidistant from midline were created on the dorso-rostral back skin. Wounds were separated by a minimum of 1 cm of uninjured skin. […] The wound area was analyzed using Adobe PhotoShop (version 7.0; Adobe Systems) and the percentage of wound closure was derived by the following formula: (1−[current wound size/initial wound size])×100.

[8] = tested on: reactive oxygen species (ROS); assay: ROS generation in cultured fibroblasts (DCF-DA); assay type: cell-based, rat; settings: fibroblasts with diabetic, inflammatory or hypercortisolemia phenotypes; ROS suppressors
Protocol: as §6
as §4, with “days. Similarly, the state of low-grade inflammation in fibroblasts was recapitulated experimentally by exposing these cells to TNF-α (4 ng/ml every day for 4 days).” for “days.”
ROS generation in cultured fibroblasts was evaluated using dichloroflurescein-diacetate (DCF-DA, Molecular Probes), a probe that is oxidized to the fluorescent product DCF upon exposure to hydrogen peroxide, peroxynitrite, hydroxyl radical and nitric oxide. Its concentration serves as an indicator of the overall degree of intracellular oxidative stress.
Cells seeded in 96-well plates were incubated for thirty minutes at 37 C in serum free media containing 5 μM of DCF-DA. The plates were then washed twice with Krebs Ringer Buffer (KR) and the fluorescence readings were taken every 15 min for 1 hr at Ex=485 and Em=530. Subtracted background values were obtained from wells containing DCF-DA without cells. […]

[9] = Wistar rats, dexamethasone 2.5 μg/kg sc twice daily (hypercortisolemia model)
[10] = fibroblasts with diabetic, inflammatory or hypercortisolemia phenotypes, ROS suppressors

## C[C@@H]1C[C@H]2[C@@H]3CCC4=CC(=O)C=C[C@]4(C)[C@@]3(F)[C@@H](O)C[C@]2(C)[C@@]1(O)C(=O)CO [Dexa, dexamethasone]
[1]; [9]
  FBG (fasting blood glucose): 78 ± 9 mg/dL
  FFA (free fatty acid): 706 ± 25 µM
  FPI (fasting plasma insulin): 0.78 ± 0.061 ng/mL

## IGF-1
Akt [2]
  Akt phosphorylation: phosphorylated (activated)
Dermal fibroblasts [3]; control fibroblasts, IGF-1 50 ng/ml, 24 hours
  increase in BrdU incorporation compared with medium only control: ~5 fold
Dermal fibroblasts [3]; diabetic fibroblasts
  reduction of IGF-1 action in inducing DNA synthesis: about 46%
Dermal fibroblasts [3]; hypercortisolemic fibroblasts
  reduction of IGF-1 action in inducing DNA synthesis: ~36%
Akt [4]
  Akt phosphorylation: phosphorylated (activated)
[5]; 26 pmol continuous infusion
  glucose metabolism response to IGF-1: virtually no response
[5]; 52 pmol continuous infusion
  decrease of response to IGF-1 relative to healthy adults: ~40%
Dermal fibroblasts [6]
  increase in collagen synthesis: about 63%
[7]; rats with diabetic complications or chemically-induced hypercortisolemia
  glucose metabolized in response to bolus injection of IGF-1 (RIST): about 125 mg glucose per kg body weight
[7]; untreated rats
  glucose metabolized in response to bolus injection of IGF-1 (RIST): 175 mg glucose per kg
PI3K-p85α / IRS-1
  PI3K activation (p85α co-precipitated with IRS-1): activates PI3K
IRS-1; control fibroblasts exposed to IGF-1 (50 ng/ml)
  phosphorylation of Tyr612 on IRS-1: induces rapid phosphorylation
PI3K
  PI3K enzymatic activity: increases PI3K enzymatic activity

## O=C(O)CCCCC1CCSS1 (stereo not drawn) [α-lipoic acid]
Excisional wounds
  healing rates of wounds: statistically indistinguishable from control rat wounds treated with IGF-1 alone
Dermal fibroblasts [3]; [10]
  impairment in key fibroblast functions (collagen synthesis, cell proliferation, migration, contraction): ameliorates
[7]; diabetic/hypercortisolemic rats, chronic administration of antioxidant
  improvement of glucose metabolism in response to bolus injection of IGF-1: about 20%
IRS-1; [10]
  common defect in IGF-1 signaling: correct the common defect in IGF-1 signaling
[8]
  HSOS (oxidative stress): lessen the HSOS
[1]; diabetic and hypercortisolemic rats, chronic treatment with ROS suppressors
  abnormalities regarding lipid and carbohydrate profiles: ameliorated
